# ChEMBL document CHEMBL3352125, “Cytotoxic activity of substituted chalcones in terms of molecular electronic properties” (Bioorg Med Chem Lett, 2014)
# Assays:
# Format in all cases: functional, cell-based
# [1] = Cytotoxicity against human HL60 cells by MTT assay; details: HL-60
# [2] = Cytotoxicity against human WM115 cells by MTT assay; details: WM-115
# [3] = Cytotoxicity against human NALM6 cells by MTT assay; details: NALM-6
SMILES,IC50 [1],IC50 [2],IC50 [3]
O=C(/C=C/c1ccc(Cl)cc1)c1ccccc1O,8.3 µM,48.9 µM,9.3 µM
O=C(/C=C/c1ccc([N+](=O)[O-])cc1)c1ccccc1O,5.8 µM,27.6 µM,6.9 µM
O=C(/C=C/c1ccccc1)c1ccccc1 [CHALCONE],55.4 µM,43.1 µM,23.9 µM
O=C(/C=C/c1ccc(O)cc1)c1ccccc1O,7.1 µM,69.1 µM,40.6 µM
O=C(/C=C/c1ccccc1Cl)c1ccccc1O,7.7 µM,7.6 µM,6.1 µM
COc1cc(/C=C/C(=O)c2ccccc2O)cc(OC)c1OC,39.3 µM,56.4 µM,31.7 µM
"O=C(/C=C/c1ccccc1)c1ccc(O)cc1O [2',4'-DIHYDROXYCHALCONE]",6.3 µM,42 µM,18 µM
O=C(/C=C/c1ccccc1)c1cc(O)ccc1O,5.3 µM,61.3 µM,5.5 µM
O=C(/C=C/c1ccc(Br)cc1)c1ccccc1O,7.3 µM,50 µM,6.8 µM
O=C(/C=C/c1ccccc1)c1ccccc1O [2'-HYDROXYCHALCONE],18 µM,40.8 µM,37.5 µM
COc1ccc(/C=C/C(=O)c2ccccc2O)cc1,48.7 µM,60.5 µM,50.2 µM
O=C1CCOc2ccccc21 [CHROMANONE],19.1 µM,53.2 µM,8.2 µM
